We go through 2 molecules from PMC8428694, “Structural characterization of the Plasmodium falciparum lactate transporter PfFNT alone and in complex with antimalarial compound MMV007839 reveals its inhibition mechanism” (PLoS Biology, 2021).

For data set [1], the target named is T1, P. falciparum formate–nitrite transporter (PfFNT) (Plasmodium falciparum, UniProt O77389).
T1 construct: gene PF3D7_0316600; full-length PfFNT, N-terminal Strep-tag; residues 7 to 293 modelled (apo structure); homopentamer
As to the kind of experiment: ITC with purified protein; cryo-EM structure of the complex at […] Å. It is filed as binding.

Data set [2] addresses T2, P. falciparum formate–nitrite transporter (PfFNT) (Plasmodium falciparum, UniProt O77389, T106A).
T2 construct: gene PF3D7_0316600; PfFNT T106A mutant, purified as wild type (full-length, N-terminal Strep-tag)
Briefly: ITC with purified mutant protein. It is filed as binding.

Data set [3] concerns the molecule itself. Briefly: cryo-EM structure; purified PfFNT in GDN detergent (25 mM Tris pH 8.0, 150 mM NaCl, 0.06% GDN), incubated with 250 mM sodium lactate before grid preparation (no lactate density: apo form); C5 symmetry; 2.3 Å.

As for `COc1ccc2c(c1)OC(O)(C(F)(F)C(F)(F)F)CC2=O` (stereo not drawn) [MMV007839], the Kd in data set [1] was roughly 7.18 nM; in data set [2] it was 80.8 nM.

B1: Plasmodium falciparum formate–nitrite transporter (PfFNT) (natural protein, P. falciparum, UniProt O77389 1-309, looked up)
chain: MPPNNSKYVLDPVSIKSVCGGEESYIRCVEYGKKKAHYSNLNLLAKAILAGMFVGLCAHASGIAGGLFYYHKLREIVGASMSVFVYGFTFPIAFMCIICTGSDLFTGNTLAVTMALYEKKVKLLDYLRVMTISLFGNYVGAVSFAFFVSYLSGAFTNVHAVEKNHFFQFLNDIAEKKVHHTFVECVSLAVGCNIFVCLAVYFVLTLKDGAGYVFSVFFAVYAFAIAGYEHIIANIYTLNIALMVNTKITVYQAYIKNLLPTLLGNYIAGAIVLGLPLYFIYKEHYYNFERSKRDNNDAQMKSLSIELRN
notes: PfFNT, lactate transporter of P. falciparum, UniProt O77389, encoded by pf3D7_0316600; full-length protein from codon-optimized cDNA; residues 7 to 293 of each protomer were assigned to the density map; Homopentamer in the cryo-EM structures; also called P. falciparum lactate transporter; wild-type PfFNT
Turning to B1, in data set [3], the “stoichiometry N” value is 5.
